Reference: patent US9193729B2, “Inhibiting transient receptor potential ion channel TRPA1” (Cubist Pharmaceuticals, Inc., priority 2011, dated 2015)

What was measured:
Format in all cases: cell-based
[1] = target: T1, hTRPC5 (Homo sapiens, UniProt Q9UL62); assay: Patch clamp selectivity, hTRPC5; details: hTRPC5 vs TRPA1
T1 sequence (Q9UL62 1-973): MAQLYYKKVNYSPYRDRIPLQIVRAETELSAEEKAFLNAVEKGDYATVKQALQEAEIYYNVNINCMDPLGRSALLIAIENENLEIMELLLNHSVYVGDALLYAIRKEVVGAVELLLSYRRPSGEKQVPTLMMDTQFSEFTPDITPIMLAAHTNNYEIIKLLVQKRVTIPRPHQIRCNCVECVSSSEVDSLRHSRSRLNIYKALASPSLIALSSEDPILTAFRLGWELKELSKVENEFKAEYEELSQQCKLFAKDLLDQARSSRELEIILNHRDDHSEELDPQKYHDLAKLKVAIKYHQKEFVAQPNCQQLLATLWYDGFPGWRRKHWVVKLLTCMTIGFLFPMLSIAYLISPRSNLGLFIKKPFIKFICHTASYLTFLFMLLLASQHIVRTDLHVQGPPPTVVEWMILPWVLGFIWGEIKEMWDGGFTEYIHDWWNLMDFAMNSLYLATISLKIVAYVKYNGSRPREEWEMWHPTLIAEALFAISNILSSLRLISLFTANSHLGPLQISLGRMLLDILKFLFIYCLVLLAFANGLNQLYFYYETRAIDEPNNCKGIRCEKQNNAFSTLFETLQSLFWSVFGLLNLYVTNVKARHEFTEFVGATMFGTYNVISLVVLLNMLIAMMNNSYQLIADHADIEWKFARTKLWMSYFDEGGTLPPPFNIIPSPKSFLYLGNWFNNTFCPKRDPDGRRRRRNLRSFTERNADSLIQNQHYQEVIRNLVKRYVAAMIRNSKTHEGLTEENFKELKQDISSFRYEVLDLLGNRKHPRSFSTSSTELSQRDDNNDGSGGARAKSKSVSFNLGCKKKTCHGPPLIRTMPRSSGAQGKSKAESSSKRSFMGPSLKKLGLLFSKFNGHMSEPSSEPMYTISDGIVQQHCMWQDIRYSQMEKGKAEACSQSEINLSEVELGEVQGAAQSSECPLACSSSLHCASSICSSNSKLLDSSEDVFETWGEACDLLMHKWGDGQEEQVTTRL
Protocol: (§1) Data for TRPA1 inhibition and the selectivity of TRPA1 inhibition was obtained by this method for the compound of Formula (Ia) and included in Table 1 and Table 2. All currents were recorded in whole-cell configuration using EPC-9 and EPC-10 amplifiers and Patchmaster software (HEKA). […] The standard pipette solution consisted of 140 mM CsAsp, 10 mM EGTA, 10 mM HEPES, 2.27 mM MgCl2, 1.91 mM CaCl2, 4 mM MgATP, and 0.1-0.3 mM Na2GTP, with pH adjusted to 7.2 with CsOH. In addition, a solution containing 145 mM CsCl, 10 mM HEPES, 10 mM EGTA and 1 mM MgCl2 (pH 7.2 adjusted with CsOH) can be used. The standard bath solution contained 150 mM NaCl, 10 mM HEPES, 10 mM glucose, 4.5 mM KCl, 1 mM EGTA, 3 mM MgCl2, with pH adjusted to 7.4 with NaOH. In some instances, 2 mM CaCl2 was added in place of EGTA and the concentration of MgCl2 was reduced to 1 mM.
(§2) Data were collected either by continuous recordings at −60 mV or by applying voltage ramps from a holding potential of 0 mV every 4 s. […] Inward and outward currents were analyzed from the ramps at −80 and 80 mV, respectively. […]
(§3) Solutions were switched using a gravity-fed continuous focal perfusion system. […] Temperatures were confirmed using a thermistor (Warner Instruments, TA-29), with temperatures at the recorded cell estimated to be within +/−2° C. of those reported. […]

[2] = target: rTRPA1 (Rattus norvegicus, UniProt Q6RI86); assay: Whole-cell patch clamp inhibition of rTRPA1; details: rTRPA1, 10 micromolar AITC activation; read-out: IC50 Inward current
rTRPA1, sequence (Q6RI86 whole entry): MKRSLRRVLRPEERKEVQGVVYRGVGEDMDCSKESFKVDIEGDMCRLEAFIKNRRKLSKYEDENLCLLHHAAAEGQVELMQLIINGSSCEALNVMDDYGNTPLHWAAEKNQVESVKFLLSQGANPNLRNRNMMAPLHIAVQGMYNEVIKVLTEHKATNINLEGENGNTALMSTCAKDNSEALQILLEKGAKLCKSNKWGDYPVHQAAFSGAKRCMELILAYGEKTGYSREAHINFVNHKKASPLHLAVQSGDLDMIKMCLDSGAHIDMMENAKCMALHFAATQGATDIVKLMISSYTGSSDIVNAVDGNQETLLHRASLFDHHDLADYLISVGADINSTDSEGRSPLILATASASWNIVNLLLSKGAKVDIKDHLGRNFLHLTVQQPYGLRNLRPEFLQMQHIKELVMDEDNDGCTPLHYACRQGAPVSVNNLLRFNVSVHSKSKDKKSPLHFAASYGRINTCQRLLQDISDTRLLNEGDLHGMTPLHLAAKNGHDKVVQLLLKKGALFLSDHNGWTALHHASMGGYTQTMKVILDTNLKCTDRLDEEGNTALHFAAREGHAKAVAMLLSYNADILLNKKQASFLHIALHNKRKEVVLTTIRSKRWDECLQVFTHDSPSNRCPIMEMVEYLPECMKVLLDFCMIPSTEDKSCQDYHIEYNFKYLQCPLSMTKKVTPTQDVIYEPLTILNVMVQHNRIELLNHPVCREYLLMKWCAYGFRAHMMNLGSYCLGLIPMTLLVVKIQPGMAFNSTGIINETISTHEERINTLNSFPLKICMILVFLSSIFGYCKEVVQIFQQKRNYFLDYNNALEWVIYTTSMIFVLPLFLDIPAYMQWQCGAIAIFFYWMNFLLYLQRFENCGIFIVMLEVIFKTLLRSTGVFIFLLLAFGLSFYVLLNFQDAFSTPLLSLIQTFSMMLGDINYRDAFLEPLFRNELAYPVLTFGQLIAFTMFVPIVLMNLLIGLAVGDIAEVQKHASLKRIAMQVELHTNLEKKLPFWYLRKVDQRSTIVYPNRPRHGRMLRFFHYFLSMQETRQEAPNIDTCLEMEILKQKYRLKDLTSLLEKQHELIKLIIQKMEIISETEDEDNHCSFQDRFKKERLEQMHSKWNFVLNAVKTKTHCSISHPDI
Protocol: as §1, §2, §3

[3] = target: hERG (Homo sapiens, UniProt Q12809); assay: Patch clamp selectivity, hERG; details: hERG vs TRPA1
hERG, sequence (Q12809 whole entry): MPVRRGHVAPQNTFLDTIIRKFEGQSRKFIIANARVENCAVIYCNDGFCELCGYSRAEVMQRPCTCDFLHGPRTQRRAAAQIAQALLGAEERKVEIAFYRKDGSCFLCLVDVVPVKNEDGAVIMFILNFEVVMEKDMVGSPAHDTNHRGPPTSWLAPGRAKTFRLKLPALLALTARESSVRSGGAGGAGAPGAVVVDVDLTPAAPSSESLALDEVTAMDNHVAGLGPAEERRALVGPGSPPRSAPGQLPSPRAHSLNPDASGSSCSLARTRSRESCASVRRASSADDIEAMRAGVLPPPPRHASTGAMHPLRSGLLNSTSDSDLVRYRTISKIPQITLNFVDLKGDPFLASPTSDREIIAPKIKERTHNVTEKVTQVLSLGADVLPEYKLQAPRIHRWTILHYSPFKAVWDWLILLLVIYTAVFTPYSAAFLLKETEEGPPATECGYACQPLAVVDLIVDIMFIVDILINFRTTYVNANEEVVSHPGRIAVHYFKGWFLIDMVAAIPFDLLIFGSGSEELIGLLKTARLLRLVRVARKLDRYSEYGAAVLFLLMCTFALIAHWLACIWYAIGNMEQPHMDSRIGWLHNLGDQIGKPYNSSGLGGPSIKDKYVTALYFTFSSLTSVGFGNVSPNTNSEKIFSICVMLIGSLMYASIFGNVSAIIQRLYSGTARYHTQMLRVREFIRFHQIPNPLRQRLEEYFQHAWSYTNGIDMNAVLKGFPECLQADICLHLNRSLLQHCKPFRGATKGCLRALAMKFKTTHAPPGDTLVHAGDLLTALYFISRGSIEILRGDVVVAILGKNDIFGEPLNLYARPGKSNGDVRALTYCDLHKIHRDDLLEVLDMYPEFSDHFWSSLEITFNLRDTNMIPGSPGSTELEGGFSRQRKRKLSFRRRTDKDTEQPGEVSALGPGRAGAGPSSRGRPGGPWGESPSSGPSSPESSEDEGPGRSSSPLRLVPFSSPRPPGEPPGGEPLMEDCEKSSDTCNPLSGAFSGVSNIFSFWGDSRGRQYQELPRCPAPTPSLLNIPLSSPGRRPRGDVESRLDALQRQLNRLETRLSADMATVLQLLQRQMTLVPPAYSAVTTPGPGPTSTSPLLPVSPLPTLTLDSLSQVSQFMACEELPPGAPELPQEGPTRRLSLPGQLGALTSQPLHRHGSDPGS
Protocol: as §1, §2, §3

C[C@H]1CCCN1c1ncc(-c2cccc(NC(=O)Cn3cnc4c3c(=O)n(C)c(=O)n4C)n2)cn1 [Formula (Ia)]
Fold Selectivity Compared to TRPA1 [1]: >100 Fold | IC50 [2]: ~100 nM | Fold Selectivity Compared to TRPA1 [3]: >100 Fold
